Data set [1] has as its target T1, collagenase (MMP-1) (Homo sapiens, UniProt P03956).
T1 construct: Following incubation, the cell medium was collected and was used as samples; endogenous in cells; host or cells: human fibroblasts (PMA-induced)
T1 sequence (P03956 100-469): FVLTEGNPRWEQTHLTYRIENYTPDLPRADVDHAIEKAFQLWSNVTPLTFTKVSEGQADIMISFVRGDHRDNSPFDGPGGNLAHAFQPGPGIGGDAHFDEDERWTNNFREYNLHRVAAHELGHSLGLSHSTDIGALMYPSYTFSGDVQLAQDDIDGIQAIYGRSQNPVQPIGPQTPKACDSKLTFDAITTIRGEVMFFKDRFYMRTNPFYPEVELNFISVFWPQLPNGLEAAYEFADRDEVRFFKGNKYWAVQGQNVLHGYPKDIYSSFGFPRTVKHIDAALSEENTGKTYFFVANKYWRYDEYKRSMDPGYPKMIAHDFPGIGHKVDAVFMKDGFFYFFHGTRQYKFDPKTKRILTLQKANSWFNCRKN
Kind of data set: Collagenase activity, Type 1 collagenase assay kit, PMA-induced. The class given is cell-based. As to the method:
(§1) Human fibroblasts (commercially available from pacific) were seeded into a 6-well plate (2×10^5 cells/well) and the well plate was incubated in a 5% CO2 incubator for 24 hr at 37° C. After 24 hr, the medium in each well was removed and samples were treated with various concentrations, followed by incubating again for 24 hr. Following incubation, the cell medium was collected and was used as samples. To measure cytotoxicity of samples to fibroblasts, MIT reagent (1 mg/ml) was added to each well in 1/10 fold volume of the remaining medium, incubated for 3 hr and the medium was eliminated. The medium was dissolved in DMSO and its absorbance at 540 nm was measured.
As a method of measuring the activity of collagenase, an enzyme that decomposes collagen, an antibody against collagenase was used. As material inducing collagenase activity, PMA (phorbol myristate acetate, Sigma) was treated. For measuring collagenase activity, a Type 1 collagenase assay kit (Amersham Biosciences, RPN2629) was used, and the absorbance was measured using an ELISA reader (Bio-Tek ELx808™ Series Ultra Microplate Reader, U.K). The measured average values were represented as mean±standard deviation.

Data set [2] concerns Human fibroblasts. Nature of the data set: Cytotoxicity to fibroblasts (MIT reagent, absorbance 540 nm). Conditions: 1 μM, 10 μM and 50 μM; compared to RA (retinoic acid); FIG. 1. The class given is cell-based. As to the method: as §1
Data set [3] relates to B16 mouse melanoma cells. Kind of data set: Inhibition of melanin production in melanoma cells. Conditions: 72 h, read-out: Inhibitory rate of melanin production (%). The data set is classed as cell-based. Here is the method: After measuring the inhibition of melanin production by matrine and oxymatrine using B16 mouse melanoma cells (Korean Cell Line Bank), the measurement was compared with that for the inhibition of melanin production by arbutin, known as a melanin production inhibitor.
B16 mouse melanoma cells F10 (Korean Cell Line Bank) were seeded into each well of a 6-well plate (1×10^5 cells/well) in DMEM (Dulbecco's modified Eagle's media) containing 10% FBS (fetal bovine serum) and the cells were cultured to about more than 80% confluence by incubating in a CO2 incubator under conditions of 37° C. and 5.0% CO2. After cultivation, the medium was removed and samples were replaced in medium diluted at suitable concentration, followed by incubating for 3 days under conditions of 37° C. and 5.0% CO2. […] The cells removing medium were washed with PBS (phosphate buffer saline) and treated with trypsin to collect cells. Number of the collected cells was calculated using hematocytometer (Tiefe Depth Profondeur 0.100 mm, Paul Marienfeld GmbH & Co. KG, D.E), centrifuged at 5,000 to 10,000 rpm for 10 min and the supernatant was eliminated, thereby obtaining pellets. This cell pellets were dried at 60° C., 100 μl of 1M NaOH containing 10% DMSO was added to thereto, and intracellular melanin was obtained in incubator at 60° C. Then, the cell solution was measured for absorbance at 490 nm using microplate reader (Bio-Tek ELx8081U, U.S) and the amount of melanin per cell constant number was estimated.

In data set [4] the test system is B16 mouse melanoma cells. Kind of data set: Cytotoxicity at the test concentrations in B16 melanoma cells. The data set is classed as cell-based. Conditions: 10 μM, 100 μM and 500 μM.
For data set [5], the system named is COX (cyclooxygenase). Nature of the data set: COX inhibitory ability in LPS-treated THP-1 cells, [1-14C] arachidonic acid, TLC. The data set is classed as cell-based, human. Conditions: LPS alone = 100. Here is the method:
To determine whether matrine and oxymatrine had anti-inflammatory effects, the experiment of COX (cyclooxygenase) inhibitory ability was carried out using human monocytic cell, THP-1 cell (Korean Cell Line Bank) according to conventional method. […] J. Van de Ouderaaa and Muytenhek. THP-1 cell line was cultivated and aliquoted into 24-well plate. The incubation volume per well was adjusted to 500 μl, 2 μl of the sample compound, which dissolved in […] (1 μg/ml, Sigma) and solvents described in the following Table 9 respectively, was added and cultivated for 24-48 hr under the same condition. After 24-48 hr, calcium ionophore (Sigma) and [1-14C] arachidonic acid 1 μl (in EtOH, 0.1 μCi/ml, Sigma) were added to each well, and cultivated for 10 min under the same condition. Following the cultivation, citric acid was added to each well for adjusting to pH 3.5, shaked, each 500 μl of cultivation solution taken from the plate was aliquoted into micro centrifuge tube, 700 μl of ethylacetate was added to thereto, and the solution was shaking extracted for 10 min. 500 μl of ethylacetate layer was concentrated using speed vacuum dryer for 20 min, 20 μl of the residual was dissolved in ethylacetate, and the resultant was employed with authentic standard in TLC plate. The radioactive band was identified by authentic eicosanoid standards, the radioactivity of the identified band was measured using BAS 2000 bio-imaging analyzer (Fuji, JP) (Table 9).

Data set [6] has as its system Interleukin-2 promoter. Nature of the data set: Interleukin-2 luciferase reporter activity in PHA-activated Jurkat cells. The data set is classed as cell-based, Human. The following applies: PHA alone = 100. Here is the method:
Interleukin-2 promoter was reported to play an important role in the generation of cytokine related to inflammatory. The activity of interleukin-2 luciferase was measured using the following method: […] Following 24 hr, the cell was collected and the luciferase activity was measured using luminometer (Berthold Technologies GmbH&Co.KG, Germany).
For orientation: A reporter such as luciferase makes a cellular process visible.

Where two headings read alike, the source gives them in different places.

In data set [1], `O=C1CCC[C@@H]2[C@H]3CCCN4CCC[C@@H](CN12)[C@@H]34` [Matrine, matrine] came in with an inhibition at 1 µM of 19%. The inhibition at 10 µM was found to be 20% in data set [1] and 11% in data set [3]. The molecule further returned an inhibition at 50 µM in data set [1] of 32%. Moreover, the “cytotoxicity against human fibroblasts compared to RA” value in data set [2] is recorded as “lower cytotoxicity”. Further, in data set [3], the inhibition at 100 µM was 31%. For the same molecule, in data set [3], the inhibition at 500 µM stood at 39%. Moreover, the cytotoxicity entry in data set [4] was “did not show cytotoxicity”. Besides, the “COX activities (%)” value in data set [5] (10 uM with LPS (1 μg/ml)) was 98%; in data set [5] (100 uM with LPS (1 μg/ml)), 87%; in data set [5] (500 uM with LPS (1 μg/ml)) it was 65%. The IL-2 luciferase activities was found to be 92 in data set [6] (10 uM with PHA (100 ng/ml)), 77 in data set [6] (100 uM with PHA (100 ng/ml)) and 68 in data set [6] (500 uM with PHA (100 ng/ml)).
In the case of `O=C1CCC[C@@H]2[C@H]3CCC[N+]4([O-])CCC[C@@H](CN12)[C@@H]34` (some centres unmarked) [Oxymatrine, oxymatrine], the inhibition at 1 µM in data set [1] worked out at 6%. Further, the inhibition at 10 µM in data set [1] was 13%; in data set [3] (10 μM, 3 days), 13%. Also, the inhibition at 50 µM in data set [1] was 17%. For the same molecule, the inhibition at 100 µM in data set [3] (100 μM, 3 days) amounted to 27%. Also, the inhibition at 500 µM in data set [3] (500 μM, 3 days) was 31%. Besides, the figures for the “COX activities (%)” value in data set [5] (10 uM with LPS (1 μg/ml)), in data set [5] (100 uM with LPS (1 μg/ml)) and in data set [5] (500 uM with LPS (1 μg/ml)) were 94%, 81% and 71%, respectively. The IL-2 luciferase activities in data set [6] (10 uM with PHA (100 ng/ml)) is given as 95; in data set [6] (100 uM with PHA (100 ng/ml)), 78; in data set [6] (500 uM with PHA (100 ng/ml)) it was 62.

Values taken from patent publication US20100099698A1, “Compositions for Improving Skin Conditions Comprising Matrine or Its Oxidized Derivatives” (Biospectrum Inc., priority 2007, published 2010).
